Test results as given in patent US8871753B2, “Macrocyclic compounds and their use as kinase inhibitors” (Incyte Corporation, priority 2008, dated 2014).
Where a name gives a salt, the structure may show the parent alone.

Legend:
Assay type in all cases: biochemical
[1] = biological target: T1, human JAK1 (a.a. 837-1142) (Homo sapiens, UniProt P23458); assay: In vitro JAK kinase assay (HTRF, phosphorylation of a biotinylated peptide), JAK1; settings: Table B1; read-out: JAK1 IC50
T1 construct: human JAK1 (a.a. 837-1142); His tag (N); made in house; host or cells: insect cells (baculovirus)
T1 sequence (P23458 849-1154): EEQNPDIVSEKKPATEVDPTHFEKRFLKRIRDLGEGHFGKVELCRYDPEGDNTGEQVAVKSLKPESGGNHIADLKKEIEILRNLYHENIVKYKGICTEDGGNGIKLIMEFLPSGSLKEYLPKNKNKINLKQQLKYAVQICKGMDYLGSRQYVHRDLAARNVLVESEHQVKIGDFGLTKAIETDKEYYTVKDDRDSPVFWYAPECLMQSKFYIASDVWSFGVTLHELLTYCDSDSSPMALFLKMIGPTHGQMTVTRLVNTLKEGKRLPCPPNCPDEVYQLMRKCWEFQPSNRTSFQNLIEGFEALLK
Procedure, shortened: (§1)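 Kinase activity was measured as phosphorylation of a biotinylated peptide, with ATP at 90 μM for JAK1, 30 μM for JAK2 and 3 μM for JAK3. Reactions ran 1 hr at room temperature, were stopped with EDTA plus SA-APC and Eu-Py20, and were read by HTRF after 40 minutes of antibody binding.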

[2] = biological target: T2, human JAK2 (a.a. 828-1132) (Homo sapiens, UniProt O60674); assay: In vitro JAK kinase assay (HTRF, phosphorylation of a biotinylated peptide), JAK2; settings: Table B1
T2 construct: JAK2 (a.a. 828-1132); His tag (N); made in house; host or cells: insect cells (baculovirus)
T2 sequence (O60674 828-1132): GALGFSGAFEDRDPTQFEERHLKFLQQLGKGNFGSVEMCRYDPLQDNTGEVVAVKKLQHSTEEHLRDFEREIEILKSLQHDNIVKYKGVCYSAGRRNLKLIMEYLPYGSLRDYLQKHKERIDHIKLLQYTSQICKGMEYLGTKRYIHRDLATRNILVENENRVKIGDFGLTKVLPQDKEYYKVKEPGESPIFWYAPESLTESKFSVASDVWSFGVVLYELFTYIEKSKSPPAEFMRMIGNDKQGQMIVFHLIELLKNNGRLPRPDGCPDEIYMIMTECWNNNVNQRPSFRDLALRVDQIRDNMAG
Procedure, shortened: as §1

[3] = biological target: T3, human JAK3 (a.a. 781-1124) (Homo sapiens, UniProt P52333); assay: In vitro JAK kinase assay (HTRF, phosphorylation of a biotinylated peptide), JAK3; settings: Table B1
T3 construct: JAK3 (a.a. 781-1124); His tag (N); made in house; host or cells: insect cells (baculovirus)
T3 sequence (P52333 781-1124): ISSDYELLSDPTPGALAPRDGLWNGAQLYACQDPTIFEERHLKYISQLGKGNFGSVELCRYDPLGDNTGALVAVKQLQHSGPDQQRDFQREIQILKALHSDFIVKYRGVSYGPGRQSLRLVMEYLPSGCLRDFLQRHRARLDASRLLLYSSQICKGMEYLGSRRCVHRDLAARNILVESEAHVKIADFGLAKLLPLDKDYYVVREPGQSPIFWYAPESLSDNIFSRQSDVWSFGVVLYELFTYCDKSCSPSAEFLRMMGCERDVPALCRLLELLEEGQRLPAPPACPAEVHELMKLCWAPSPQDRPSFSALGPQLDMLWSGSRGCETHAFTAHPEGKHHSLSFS
Procedure, shortened: as §1

TYK2 = TYK2 (Homo sapiens, UniProt P29597); assay: TYK2 kinase inhibition (Table A1); settings: Table B1
TYK2, sequence (P29597 whole entry): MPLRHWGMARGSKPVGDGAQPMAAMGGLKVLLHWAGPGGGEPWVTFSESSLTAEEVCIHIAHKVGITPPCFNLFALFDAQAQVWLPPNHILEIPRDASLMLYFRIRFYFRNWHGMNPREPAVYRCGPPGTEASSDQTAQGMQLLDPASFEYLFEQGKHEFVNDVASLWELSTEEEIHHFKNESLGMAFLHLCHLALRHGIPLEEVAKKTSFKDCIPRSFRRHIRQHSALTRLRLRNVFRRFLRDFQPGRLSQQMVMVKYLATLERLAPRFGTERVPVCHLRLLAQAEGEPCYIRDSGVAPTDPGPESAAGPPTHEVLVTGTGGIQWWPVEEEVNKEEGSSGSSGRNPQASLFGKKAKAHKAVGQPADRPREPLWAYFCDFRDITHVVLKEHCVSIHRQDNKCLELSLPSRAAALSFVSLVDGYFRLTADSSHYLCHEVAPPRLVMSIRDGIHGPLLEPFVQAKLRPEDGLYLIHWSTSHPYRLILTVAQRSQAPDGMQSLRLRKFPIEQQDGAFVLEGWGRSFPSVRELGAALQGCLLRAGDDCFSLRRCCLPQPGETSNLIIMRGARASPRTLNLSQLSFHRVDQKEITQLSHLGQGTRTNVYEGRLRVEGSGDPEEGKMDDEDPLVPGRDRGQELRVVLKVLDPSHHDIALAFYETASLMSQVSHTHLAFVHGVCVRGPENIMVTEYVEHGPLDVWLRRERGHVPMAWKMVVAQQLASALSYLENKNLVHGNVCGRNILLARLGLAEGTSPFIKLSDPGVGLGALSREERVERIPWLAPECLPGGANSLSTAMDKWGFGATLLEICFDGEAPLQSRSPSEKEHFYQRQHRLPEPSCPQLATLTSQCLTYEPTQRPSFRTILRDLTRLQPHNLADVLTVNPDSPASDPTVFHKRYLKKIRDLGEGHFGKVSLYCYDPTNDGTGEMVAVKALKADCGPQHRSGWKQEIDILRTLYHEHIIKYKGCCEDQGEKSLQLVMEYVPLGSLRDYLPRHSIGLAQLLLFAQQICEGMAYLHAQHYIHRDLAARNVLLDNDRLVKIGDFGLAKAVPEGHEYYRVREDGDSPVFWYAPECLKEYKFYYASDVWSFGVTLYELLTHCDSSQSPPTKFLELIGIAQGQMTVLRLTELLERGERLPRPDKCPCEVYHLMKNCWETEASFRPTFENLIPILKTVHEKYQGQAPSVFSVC

[4] = biological target: T4, Recombinant Human Anaplastic Lymphoma Kinase (Homo sapiens, UniProt Q9UM73); assay: ALK HTRF kinase assay; settings: compound at a concentration of 500 nM or 1 mM (not specified); cells shown as percentage
T4 construct: purchased Invitrogen, Carlsbad, Calif
T4 sequence (Q9UM73 19-1620): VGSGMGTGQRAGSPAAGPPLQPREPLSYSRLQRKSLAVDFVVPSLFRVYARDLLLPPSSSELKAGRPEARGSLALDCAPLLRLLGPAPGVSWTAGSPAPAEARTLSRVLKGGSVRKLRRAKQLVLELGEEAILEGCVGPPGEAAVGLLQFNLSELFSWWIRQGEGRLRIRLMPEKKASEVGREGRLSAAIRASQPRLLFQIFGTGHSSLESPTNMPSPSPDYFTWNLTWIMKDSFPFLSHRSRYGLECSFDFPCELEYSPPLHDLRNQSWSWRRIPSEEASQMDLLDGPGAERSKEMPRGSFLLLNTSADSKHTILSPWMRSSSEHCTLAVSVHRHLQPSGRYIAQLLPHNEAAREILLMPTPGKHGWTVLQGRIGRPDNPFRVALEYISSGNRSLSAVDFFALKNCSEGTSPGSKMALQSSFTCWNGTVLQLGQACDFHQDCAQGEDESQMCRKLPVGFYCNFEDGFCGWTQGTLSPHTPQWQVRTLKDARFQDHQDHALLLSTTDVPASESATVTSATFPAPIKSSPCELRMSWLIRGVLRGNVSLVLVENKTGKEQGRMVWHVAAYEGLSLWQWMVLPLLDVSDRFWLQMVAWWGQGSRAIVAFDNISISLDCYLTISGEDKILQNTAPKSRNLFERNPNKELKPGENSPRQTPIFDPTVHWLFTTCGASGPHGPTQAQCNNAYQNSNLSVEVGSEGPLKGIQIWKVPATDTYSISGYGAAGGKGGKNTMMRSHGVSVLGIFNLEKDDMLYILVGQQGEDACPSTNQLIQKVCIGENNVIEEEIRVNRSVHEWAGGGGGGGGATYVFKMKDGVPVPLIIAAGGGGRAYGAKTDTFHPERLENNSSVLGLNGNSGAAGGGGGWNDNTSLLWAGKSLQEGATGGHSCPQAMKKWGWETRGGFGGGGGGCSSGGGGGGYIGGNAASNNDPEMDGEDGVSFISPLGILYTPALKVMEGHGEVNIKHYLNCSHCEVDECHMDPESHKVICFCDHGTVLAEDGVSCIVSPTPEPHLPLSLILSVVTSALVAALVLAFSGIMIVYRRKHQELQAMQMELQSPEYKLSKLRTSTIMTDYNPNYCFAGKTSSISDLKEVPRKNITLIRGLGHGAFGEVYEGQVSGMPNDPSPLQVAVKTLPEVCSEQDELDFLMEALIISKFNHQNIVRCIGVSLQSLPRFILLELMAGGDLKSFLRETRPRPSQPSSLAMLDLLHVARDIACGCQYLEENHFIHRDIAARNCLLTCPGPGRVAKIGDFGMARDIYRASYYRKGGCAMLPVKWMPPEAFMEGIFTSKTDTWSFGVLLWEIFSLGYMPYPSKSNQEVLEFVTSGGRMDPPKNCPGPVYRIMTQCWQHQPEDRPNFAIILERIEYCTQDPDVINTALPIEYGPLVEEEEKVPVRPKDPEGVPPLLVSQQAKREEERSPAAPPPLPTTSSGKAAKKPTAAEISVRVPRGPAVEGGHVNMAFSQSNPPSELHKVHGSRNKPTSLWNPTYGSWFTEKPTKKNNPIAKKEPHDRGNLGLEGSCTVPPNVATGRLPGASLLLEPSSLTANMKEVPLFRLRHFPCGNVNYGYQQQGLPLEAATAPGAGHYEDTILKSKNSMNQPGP
Procedure, shortened: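 IC50 was obtained from a logistic fit of signal versus log inhibitor concentration, using pre- and post-transition baselines and a Hill slope. The signal reported tyrosine phosphorylation of a biotinylated peptide by recombinant human kinase, detected as Eu-to-APC energy transfer.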

Structure (SMILES)	IC50 [1] [nM]	IC50 [2] [nM]	IC50 [3] [nM]	IC50 (TYK2) [nM]	ALK % of inhibition at a concentration of 500 nM or 1 mM [4] [%]
O=C(Nc1ccc2cc1CCc1cccc(c1)Nc1ncc(Cl)c(n1)N2)N[C@H]1CCN(Cc2ccccc2)C1 [Example B173, N-[(3S)-1-Benzylpyrrolidin-3-yl]-N′-[6-chloro-2,4,8,22-tetraazatetracyclo[14.3.1.1(3,7).1(9,13)]docosa-1(20),3(22),4,6,9(21),10,12,16,18-nonaen-12-yl]urea bis(trifluoroacetate)]	3.5	23	163	55	14
CC(C)(C)OC(=O)N1CC[C@@H](NC(=O)Nc2ccc3cc2CCc2cccc(c2)Nc2ncc(Cl)c(n2)N3)C1 [Example B174, tert-Butyl (3R)-3-[({[6-chloro-2,4,8,22-tetraazatetracyclo[14.3.1.1(3,7).1(9,13)]docosa-1(20),3(22),4,6,9(21),10,12,16,18-nonaen-12-yl]amino}carbonyl)amino]pyrrolidine-1-carboxylate]	15	27	124	62	12
O=C(Nc1ccc2cc1CCc1cccc(c1)Nc1ncc(Cl)c(n1)N2)N[C@@H]1CCNC1 [Example B175, N-[6-Chloro-2,4,8,22-tetraazatetracyclo[14.3.1.1(3,7).1(9,13)]docosa-1(20),3(22),4,6,9(21),10,12,16,18-nonaen-12-yl]-N′-[(3R)-pyrrolidin-3-yl]urea dihydrochloride]	9	18	69	31	18
O=C(Nc1ccc2cc1CCc1cccc(c1)Nc1ncc(Cl)c(n1)N2)N[C@@H]1CCN(C(=O)c2ccccc2)C1 [Example B176, N-[(3R)-1-Benzoylpyrrolidin-3-yl]-N′-[6-chloro-2,4,8,22-tetraazatetracyclo[14.3.1.1(3,7).1(9,13)]docosa-1(20),3(22),4,6,9(21),10,12,16,18-nonaen-12-yl]urea trifluoroacetate]	5.7	7.8	60	25	19
O=C(Nc1ccc2cc1CCc1cccc(c1)Nc1ncc(Cl)c(n1)N2)NC1CCNCC1 [Example B181, N-[6-Chloro-2,4,8,22-tetraazatetracyclo[14.3.1.1(3,7).1(9,13)]docosa-1(20),3(22),4,6,9(21),10,12,16,18-nonaen-12-yl]-N′-piperidin-4-ylurea dihydrochloride]	70	177	236	226	3.7
CC(C)NC(=O)NCCNC(=O)Nc1ccc2cc1CCc1cccc(c1)Nc1ncc(Cl)c(n1)N2 [Example B188, N-[6-Chloro-2,4,8,22-tetraazatetracyclo[14.3.1.1(3,7).1(9,13)]docosa-1(20),3(22),4,6,9(21),10,12,16,18-nonaen-12-yl]-N′-(2-{[(isopropylamino)carbonyl]amino}ethyl)urea trifluoroacetate]	4	7.7	52	13	24
O=C(NCCNC(=O)c1ccccc1)Nc1ccc2cc1CCc1cccc(c1)Nc1ncc(Cl)c(n1)N2 [Example B189, N-{2-[({[6-Chloro-2,4,8,22-tetraazatetracyclo[14.3.1.1(3,7).1(9,13)]docosa-1(20),3(22),4,6,9(21),10,12,16,18-nonaen-12-yl]amino}carbonyl)amino]ethyl}benzamide trifluoroacetate]	5	6.7	35	22	15
O=C(NCCNC(=O)c1ccccn1)Nc1ccc2cc1CCc1cccc(c1)Nc1ncc(Cl)c(n1)N2 [Example B190, N-{2-[({[6-Chloro-2,4,8,22-tetraazatetracyclo[14.3.1.1(3,7).1(9,13)]docosa-1(20),3(22),4,6,9(21),10,12,16,18-nonaen-12-yl]amino}carbonyl)amino]ethyl}pyridine-2-carboxamide trifluoroacetate]	5	10	61	19	11

The next compounds have a lower IC50 [1] than those just listed; values first:

IC50 [1] [nM]	IC50 [2] [nM]	IC50 [3] [nM]	IC50 (TYK2) [nM]	ALK % of inhibition at a concentration of 500 nM or 1 mM [4] [%]	Structure (SMILES)
0.82	1.1	17	2.6	24	CS(=O)(=O)N1CC[C@H](NC(=O)Nc2ccc3cc2CCc2cccc(c2)Nc2ncc(Cl)c(n2)N3)C1 [Example B172, N-[6-Chloro-2,4,8,22-tetraazatetracyclo[14.3.1.1(3,7).1(9,13)]docosa-1(20),3(22),4,6,9(21),10,12,16,18-nonaen-12-yl]-N′-[(3S)-1-(methylsulfonyl)pyrrolidin-3-yl]urea trifluoroacetate]
3.1	5.4	46	39	20	CC(=O)N1CC[C@@H](NC(=O)Nc2ccc3cc2CCc2cccc(c2)Nc2ncc(Cl)c(n2)N3)C1 [Example B177, N-[(3R)-1-Acetylpyrrolidin-3-yl]-N′-[6-chloro-2,4,8,22-tetraazatetracyclo[14.3.1.1(3,7).1(9,13)]docosa-1(20),3(22),4,6,9(21),10,12,16,18-nonaen-12-yl]urea trifluoroacetate]
0.82	1.1	17	2.6	24	CS(=O)(=O)N1CC[C@@H](NC(=O)Nc2ccc3cc2CCc2cccc(c2)Nc2ncc(Cl)c(n2)N3)C1 [Example B178, N-[6-Chloro-2,4,8,22-tetraazatetracyclo[14.3.1.1(3,7).1(9,13)]docosa-1(20),3(22),4,6,9(21),10,12,16,18-nonaen-12-yl]-N′-[(3R)-1-(methylsulfonyl)pyrrolidin-3-yl]urea trifluoroacetate]
0.23	0.84	1.3	2.8	43	NS(=O)(=O)N1CC[C@@H](NC(=O)Nc2ccc3cc2CCc2cccc(c2)Nc2ncc(Cl)c(n2)N3)C1 [Example B179, (3R)-3-[({[6-Chloro-2,4,8,22-tetraazatetracyclo[14.3.1.1(3,7).1(9,13)]docosa-1(20),3(22),4,6,9(21),10,12,16,18-nonaen-12-yl]amino}carbonyl)amino]pyrrolidine-1-sulfonamide trifluoroacetate]
1.2	6.2	44	17	29	CS(=O)(=O)N1CCC(NC(=O)Nc2ccc3cc2CCc2cccc(c2)Nc2ncc(Cl)c(n2)N3)CC1 [Example B182, N-[6-Chloro-2,4,8,22-tetraazatetracyclo[14.3.1.1(3,7).1(9,13)]docosa-1(20),3(22),4,6,9(21),10,12,16,18-nonaen-12-yl]-N′-[1-(methylsulfonyl)piperidin-4-yl]urea trifluoroacetate]
2.1	1	14	7	26	NS(=O)(=O)N1CCC(NC(=O)Nc2ccc3cc2CCc2cccc(c2)Nc2ncc(Cl)c(n2)N3)CC1 [Example B183, 4-[({[6-Chloro-2,4,8,22-tetraazatetracyclo[14.3.1.1(3,7).1(9,13)]docosa-1(20),3(22),4,6,9(21),10,12,16,18-nonaen-12-yl]amino}carbonyl)amino]piperidine-1-sulfonamide trifluoroacetate]
0.1	0.1	0.1	0.14	82	NS(=O)(=O)Nc1ccc2cc1CCc1cccc(c1)Nc1ncc(Cl)c(n1)N2 [Example B184, N-[6-Chloro-2,4,8,22-tetraazatetracyclo[14.3.1.1(3,7).1(9,13)]docosa-1(20),3(22),4,6,9(21),10,12,16,18-nonaen-12-yl]sulfamide trifluoroacetate]
0.62	3.9	46	4	12	CC(C)(C)OC(=O)NCCNC(=O)Nc1ccc2cc1CCc1cccc(c1)Nc1ncc(Cl)c(n1)N2 [Example B185, tert-Butyl {2-[({[6-chloro-2,4,8,22-tetraazatetracyclo[14.3.1.1(3,7).1(9,13)]docosa-1(20),3(22),4,6,9(21),10,12,16,18-nonaen-12-yl]amino}carbonyl)amino]ethyl}carbamate]
0.9	0.4	2.4	1.9	29	CS(=O)(=O)NCCNC(=O)Nc1ccc2cc1CCc1cccc(c1)Nc1ncc(Cl)c(n1)N2 [Example B187, N-{2-[({[6-Chloro-2,4,8,22-tetraazatetracyclo[14.3.1.1(3,7).1(9,13)]docosa-1(20),3(22),4,6,9(21),10,12,16,18-nonaen-12-yl]amino}carbonyl)amino]ethyl}methanesulfonamide trifluoroacetate]
